“Also recorded” adds a separate entry of the source. Where two headings read alike, the source gives them in different places.
Columns and labels:
Type in all cases: in vivo, human
[1] = Food effect (FE) part, plasma pharmacokinetics; conditions: for AUC / AUC(0-inf) / Cmax / AUC(0-t) / half-life / Vd/F / Tmax: human, plasma, po, 200 mg; for AUC: read-out: AUC0- GM; for Vd/F: read-out: Vz/F; for Tmax: median
Description: (§1) In this part, eight subjects received 200 mg ASD-in-Capsule orally as a single dose in a randomized way, once under fasting conditions and once after the intake of a high fat breakfast, with a wash-out period of one week between successive dosing (FIG. 4).
Blood samples were collected post-dosing on Day 1 (at 0.5, 1, 2, 3, 4, 6, 8, 12, and 16 hours) and Day 8 (at 0.5, 1, 2, 3, 4, 6, 8, 10, 12, 16, 20, 24, 30, 36, and 48 hours) as well as immediately pre-morning dose on Days 2-7 and 2 hours post-morning dose on Days 4 and 6. Within 15 minutes of collection, blood samples were centrifuged at 2000 rpm for 10 minutes at 4° C., and, subsequently, the plasma was aliquoted, frozen, and stored at −70° C. pending PK analyses.
The samples were subjected to liquid chromatography followed by analyses by tandem mass spectrometry. The lower limit of quantification for the compound of formula (I) was 5 ng/mL.
The plasma PK parameters were derived by non-compartmental analyses using Phoenix® WinNonlin® version 6.3 or higher (Pharsight Corporation Inc., Mountain View, CA, USA). PK variables were summarized using arithmetic mean, standard deviation, median, minimum, maximum, the percent coefficient of variation, geometric mean, and a two-sided 95% confidence limit of the arithmetic mean and the geometric mean.
For the evaluations of food effect on the PK profile of the compound of formula (I), the analysis of variance (ANOVA) model included sequence, treatment, and period as fixed effects and subject nested within sequence as a random effect using the SASR mixed model procedure. Each ANOVA included calculation of Least Squares Means (LSM), the difference between LSM under fed condition (Test) over fasted condition (Reference), and the standard error associated with this difference.

[2] = Multiple ascending dose (MAD) part, safety and tolerability; conditions: for Adverse events possibly-related to drug administration: Multiple ascending dose, ASD formulation
Description: Three cohorts of eight subjects each (six on active and two on placebo) were enrolled and received the following treatments orally: 100 mg, 200 mg, and 400 mg ASD-in-Capsule b.i.d. (one dose on Days 1 and 8, twice-daily doses from Days 2 to 7) (FIG. 4).
(§2) Safety and tolerability were assessed at pre-specified timepoints throughout the studies by AEs reporting, vital signs measurements, physical examination, laboratory tests, and ECG examinations.
(§3) Safety and tolerability data were evaluated for the treated population (all participants who took at least one dose of study medications). […] Descriptive statistics were used to evaluate the for safety and tolerability data and for plasma concentrations and PK parameters of the compound of formula (I).

[3] = Single ascending dose (SAD) study, safety and tolerability
Description: Eight cohorts of eight subjects each (six on active and two on placebo) were enrolled. Two different oral formulations of the compound of formula (I) were tested. The initial formulation was neat active pharmaceutical ingredient (API) filled in oral capsules of the compound of formula (I) (API-in-Capsule) which was tested at three dose levels: 200 mg, 400 mg, and 800 mg. Subsequently, an improved oral formulation was tested, the amorphous solid dispersion (ASD) of the compound of formula (I) (ASD-in-Capsule) at five dose levels: 50 mg, 100 mg, 200 mg, 350 mg, and 450 mg (FIG. 1).
as §2
Safety and tolerability data were evaluated for the treated population (all participants who took at least one dose of study medications). […] Descriptive statistics were used to evaluate the safety and tolerability data and for plasma concentrations and PK parameters of the compound of formula (I).

[4] = Food effect (FE) part, safety and tolerability; conditions: for Adverse events possibly-related to drug administration: 200 mg, ASD formulation
Description: as §1, §2, §3

[5] = 200 mg single oral dose, fed over fasted, geometric least-squares mean ratio
[6] = Treatment D: single oral dose 200 mg ASD-in-Capsule, fasted, mean
[7] = Treatment E: single oral dose 200 mg ASD-in-Capsule, fed (high-fat, high-calorie breakfast), mean

For `Cc1cccc(COc2ccc(Sc3ccoc3C3NC(=O)NC3=O)cc2)c1` (stereo not shown) [compound of formula (I)], the “AUC0- GMR Treatment E/D” value [1, 5] was 103.42 percentage, the “AUC0-inf GMR Treatment E/D” value [1, 5] was 102.76 percentage and the “Cmax GMR Treatment E/D” value [1, 5] was 74.53 percentage. The CL/F [1, 6] was 32.3 L/h, the Kel [1, 6] was 0.0796 h⁻¹ and the CL/F [1, 7] was 32.3 L/h. It also gave a Kel [1, 7] of 0.0917 h⁻¹, an AUC ([1]; Treatment D: 200 mg single oral dose, fasted, geometric least-squares mean) of 6.26 µg·h/mL and an AUC(0-inf) ([1]; Treatment D: 200 mg single oral dose, fasted, geometric least-squares mean, read-out: AUC0-inf GM) of 6.4 µg·h/mL. For the same molecule, the Cmax ([1]; Treatment D: 200 mg single oral dose, fasted, geometric least-squares mean, read-out: Cmax GM) was 1.02 µg/mL, the AUC(0-t) [1, 6] was 6.49 µg·h/mL and the half-life [1, 6] was 9.36 h. It also gave an AUC(0-inf) ([1]; Treatment D: single oral dose 200 mg ASD-in-Capsule, fasted, mean, read-out: AUC0-inf) of 6.62 µg·h/mL, a Cmax ([1]; Treatment D: single oral dose 200 mg ASD-in-Capsule, fasted, mean, read-out: Cmax) of 1.05 µg/mL and a Vd/F [1, 6] of 446 L. It also gave a Tmax ([1]; Treatment D: single oral dose 200 mg ASD-in-Capsule, fasted) of 1 h, an AUC ([1]; Treatment E: 200 mg single oral dose, fed, geometric least-squares mean) of 6.48 µg·h/mL and an AUC(0-inf) ([1]; Treatment E: 200 mg single oral dose, fed, geometric least-squares mean, read-out: AUC0-inf GM) of 6.58 µg·h/mL. For the same molecule, the Cmax ([1]; Treatment E: 200 mg single oral dose, fed, geometric least-squares mean, read-out: Cmax GM) was 0.764 µg/mL, the AUC(0-t) [1, 7] was 6.8 µg·h/mL and the half-life [1, 7] was 8.09 h. For the same molecule, the AUC(0-inf) ([1]; Treatment E: single oral dose 200 mg ASD-in-Capsule, fed (high-fat, high-calorie breakfast), mean, read-out: AUC0-inf) was 6.9 µg·h/mL, the Cmax ([1]; Treatment E: single oral dose 200 mg ASD-in-Capsule, fed (high-fat, high-calorie breakfast), mean, read-out: Cmax) was 0.787 µg/mL and the Vd/F [1, 7] was 383 L. For the same molecule, the Tmax ([1]; Treatment E: single oral dose 200 mg ASD-in-Capsule, fed (high-fat, high-calorie breakfast)) was 2.5 h, the “Total number of AEs possibly related to treatment” value ([2]; MAD study, all dose levels) was “seven” and the “Adverse events possibly-related to drug administration” value (“Adverse events possibly-related” below) ([2]; 100 mg) was “fatigue; also recorded: cough”. For the same molecule, the “Adverse events possibly-related” value ([2]; 200 mg) was “eye irritation; also recorded: erythema; also recorded: dizziness; also recorded: skin rash”, the “Severe or serious AEs” value ([2]; Study II (MAD and FE parts)) was “No severe or serious AEs were reported” and the “Changes from baseline in weight, vital signs, physical examination, laboratory or ECG data” value ([2]; Study II (MAD and FE parts), any time point) was “No clinically relevant changes”. For the same molecule, the “Safety and tolerability, overall” value ([2]; across all dose levels and dosing regimens studied) was “safe and generally well-tolerated”, the “Safety and tolerability, overall” value ([3]; across all dose levels studied) was “safe and generally well-tolerated” and the “Severe or serious AEs” value ([3]; all dose levels and both formulations) was “No severe or serious AEs were reported”. For the same molecule, the “Changes from baseline in weight, vital signs, physical examination, laboratory or ECG data” value ([3]; any time point) was “No clinically relevant changes”, the “Adverse events possibly-related” value ([4]; Food effect fasting status) was “headache” and the “Adverse events possibly-related” value ([4]; Food effect fed status) was “headache”. The “Total number of AEs possibly related to treatment” value ([4]; food effect part, in one subject) was “two”.

From US20240277670A1, “SAFE USE OF MMP-12 INHIBITOR” (Foresee Pharmaceuticals Co., Ltd., priority 2021, published 2024)
